Source: PMC10160035, “Mechanism-based and computational modeling of hydrogen sulfide biogenesis inhibition: interfacial inhibition” (Scientific Reports, 2023)

Key:
CSE = conditions: cited from earlier work
[1] = system: homogenated mouse aorta samples; design: method as in Brancaleone et al. (34); conditions: ref Brancaleone et al. (34), read-out: IC50 ex cellulo; cited from earlier work
[2] = system: recombinant CSE (GST-CSE); conditions: 1 mM Cys, methylene blue assay, 10 min pre-incubation with CSE; read-out: IC50 towards H2S production; cited from earlier work
[3] = target: T1, human CSE (cystathionine γ-lyase) (Homo sapiens, UniProt P32929); experiment: lead acetate assay of H2S production from cysteine; format: biochemical; design: 6xHis (TEV-cleavable) (N, cleaved yes); made in house; host or cells: E. coli One Shot BL-21 Star (DE3)
T1 sequence (P32929 whole entry): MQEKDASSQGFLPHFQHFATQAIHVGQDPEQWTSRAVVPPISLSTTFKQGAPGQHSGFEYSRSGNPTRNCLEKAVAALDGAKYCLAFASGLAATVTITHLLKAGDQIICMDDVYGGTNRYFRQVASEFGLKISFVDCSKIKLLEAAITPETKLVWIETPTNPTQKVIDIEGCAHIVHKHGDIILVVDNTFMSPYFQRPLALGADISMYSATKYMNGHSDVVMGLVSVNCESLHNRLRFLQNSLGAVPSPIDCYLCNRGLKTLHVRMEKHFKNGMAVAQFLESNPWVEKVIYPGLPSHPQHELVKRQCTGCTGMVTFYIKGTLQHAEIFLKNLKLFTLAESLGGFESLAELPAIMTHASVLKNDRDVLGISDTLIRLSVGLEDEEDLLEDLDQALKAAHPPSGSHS
Experimental: Production of H2S from cysteine by CSE was measured spectrophotometrically by the lead acetate assay as previously described. […] Then, the formation of lead sulfide resulting from the reactivity of H2S with lead acetate was continuously monitored at 390 nm. The half inhibitory concentration (IC50) value was obtained by plotting the relative activity of CSE (A, in per cent) as a function of the concentration of D-pen and by fitting the data with Eq. (4), where ∆A is the maximal effect of D-pen on the activity of CSE and n is the Hillslope that characterizes the slope of the curve at its midpoint.4 A=ΔA/1+[D-Pen]/IC50^n
Next, 40 μg of CSE was added to the assay mixture to initiate the reaction, which was followed at 390 nm. The molar extinction coefficient for lead sulfide previously determined was then used to obtain vH2S[24]. The CSE-D-penicillamine dissociation constants for competitive and uncompetitive inhibition were calculated by plotting vH2S as a function of cysteine concentration and using Eq. (5).5 vH2S=Vmax×[Cys]/KM×1+[D-Pen]/Kic+[Cys]×1+[D-Pen]/Kiu

[4] = target: T1, human CSE (cystathionine γ-lyase); experiment: biochemical
[5] = target: T1, human CSE (cystathionine γ-lyase)
[6] = target: T2, recombinant human CSE (cystathionine γ-lyase), tag-less (Homo sapiens, UniProt P32929); experiment: D-penicillamine binding followed by PLP fluorescence quenching; conditions: PLP fluorescence at 495 nm, 100 mM HEPES pH 7.4, 20 °C, n = 3 ± SD; read-out: Kd (dissociation constant between tag-less CSE and D-pen)
T2 construct: 6xHis (TEV-cleavable) (N, cleaved yes); made in house; host or cells: E. coli One Shot BL-21 Star (DE3)
T2 sequence (P32929 whole entry): as above
Experimental: The addition of D-pen induced a quenching of fluorescence. […] The black line represents the fit to the experimental data with a four-parameter logistic equation to obtain the dissociation binding constant of D-pen for CSE.
Fluorescence emission spectra were recorded 5 min after D-pen addition.

[7] = target: the molecule itself; experiment: SEC; HiLoad 16/600 Superdex 200, 0.5 mL/min, 100 mM HEPES pH 7.4, 150 mM NaCl; oligomeric state from the estimated apparent molecular mass

C#CCNC(=O)[C@@H]1CSC(=O)N1 [(R)-2-oxo-N-(prop-2-yn-1-yl)thiazolidine-4-carboxamide]
inhibitory mode towards CSE (CSE): substrate inhibitors

CC(C)(S)[C@@H](N)C(=O)O [D-pen, D-penicillamine]
IC50 [1]: 44 µM | IC50 [2]: 270 µM | IC50 ([3]; 1 mM Cys, 200 mM HEPES pH 7.4, 37 °C, no pre-incubation with enzyme, read-out: IC50 towards H2S production): 2040 ± 130 µM | Kiu (dissociation constant for uncompetitive inhibition), H2S biogenesis from Cys ([3]; 1–10 mM cysteine, 100 mM HEPES pH 7.4, 37 °C): 8.60 ± 1.22 mM | Ki ([3]; 1–10 mM cysteine, 100 mM HEPES pH 7.4, 37 °C, read-out: Kic (dissociation constant for competitive inhibition), H2S biogenesis from Cys): 1820 ± 350 µM | mode of inhibition of H2S biogenesis ([3]; Lineweaver–Burk analysis, varying Cys): mixed inhibition mechanism | effect of pre-incubation time on inhibition potency ([3]; inhibition followed as a function of pre-incubating time): not a slow-binding inhibitor | Ki [4]: 2540 ± 650 µM | Kiu (uncompetitive inhibition), α,γ-elimination of cystathionine ([5]; 0.1–3 mM cystathionine, 100 mM HEPES pH 7.4, 37 °C): 8.55 ± 0.89 mM | mode of inhibition of cystathionine cleavage ([5]; Lineweaver–Burk analysis): mixed inhibition mechanism | Kd [6]: 15000 ± 4600 µM

N[C@@H](CSCCCC(=O)O)C(=O)O [S-3-carboxypropyl-L-cysteine]
inhibitory mode towards CSE (CSE): suicide inhibitors

NCCO/C=C/[C@H](N)C(=O)O [aminoethoxyvinyglycine]
inhibitory mode towards CSE (CSE): slow and tight binding inhibitor

O=C(O)C1=CC(=C(c2ccc(O)c(C(=O)O)c2)c2ccc(O)c(C(=O)O)c2)C=CC1=O [aurintricarboxylic acid]
inhibitory mode towards CSE (CSE): competitive cofactor

C#CCC(N)C(=O)O (stereo not shown) [propargylglycine]
inhibitory mode towards CSE (CSE): suicide inhibitors

N[C@H](C(=O)O)C(F)(F)F [trifluoroalanine]
inhibitory mode towards CSE (CSE): suicide inhibitors

B1: human recombinant cystathionine γ-lyase with N-terminal 6xHis-tag (enzyme)
chain: MQEKDASSQGFLPHFQHFATQAIHVGQDPEQWTSRAVVPPISLSTTFKQGAPGQHSGFEYSRSGNPTRNCLEKAVAALDGAKYCLAFASGLAATVTITHLLKAGDQIICMDDVYGGTNRYFRQVASEFGLKISFVDCSKIKLLEAAITPETKLVWIETPTNPTQKVIDIEGCAHIVHKHGDIILVVDNTFMSPYFQRPLALGADISMYSATKYMNGHSDVVMGLVSVNCESLHNRLRFLQNSLGAVPSPIDCYLCNRGLKTLHVRMEKHFKNGMAVAQFLESNPWVEKVIYPGLPSHPQHELVKRQCTGCTGMVTFYIKGTLQHAEIFLKNLKLFTLAESLGGFESLAELPAIMTHASVLKNDRDVLGISDTLIRLSVGLEDEEDLLEDLDQALKAAHPPSG
modifications: pyridoxal 5'-phosphate as internal aldimine with Lys212
notes: cystathionine γ-lyase (CSE), human; also called CSE; hCSE; source: E. coli One Shot BL-21 Star (DE3), purified (His-Trap HP, HiLoad 16/600 Superdex 200); not shown: His6, N-terminal, kept
stoichiometry N [7]: 4

B2: tag-less human recombinant cystathionine γ-lyase (enzyme)
chain: B1 chain
modifications: pyridoxal 5'-phosphate as internal aldimine with Lys212
notes: cystathionine γ-lyase (CSE), human; tag removed with TEV protease; also called tag-less CSE; CSE; not shown: His6, N-terminal, cleaved
stoichiometry N [7]: 4
